From US20250215010A1, “DIAZABICYCLOOCTANE DERIVATIVES USEFUL AS MATRIX METALLOPROTEINASE INHIBITORS” (VASA THERAPEUTICS SPOLKA Z OGRANICZONA ODPOWIEDZIALNOSCIA, priority 2022, published 2025)
Where two headings read alike, the source gives them in different places.

How the values were obtained:
Assay type in all cases: biochemical
[1] = target: T1, MMP13 (Homo sapiens, UniProt P45452); assay: MMP-13 colorimetric inhibition assay (Enzo kit BML-AK412); conditions: thiopeptide substrate, absorbance 415 nm; read-out: MMP 13 IC50 class
T1 construct: purchased Enzo Life Sciences, Inc. BML-AK412
In short: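 Thiopeptide chromogenic substrate (Ac-PLG-[2-mercapto-4-methylpentanoyl]-LG-OC2H5); MMP-13 hydrolysis of the thioester yields a thiol that reacts with DTNB, read at 415 nm. IC50 values (nM) derived from inhibition curves of normalized data.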

[2] = target: T2, MMP2 (Homo sapiens, UniProt P08253); assay: MMP-2 colorimetric inhibition assay (Enzo kit BML-AK408); conditions: thiopeptide substrate, absorbance 415 nm; read-out: MMP 2 IC50 class
T2 sequence (P08253 110-660): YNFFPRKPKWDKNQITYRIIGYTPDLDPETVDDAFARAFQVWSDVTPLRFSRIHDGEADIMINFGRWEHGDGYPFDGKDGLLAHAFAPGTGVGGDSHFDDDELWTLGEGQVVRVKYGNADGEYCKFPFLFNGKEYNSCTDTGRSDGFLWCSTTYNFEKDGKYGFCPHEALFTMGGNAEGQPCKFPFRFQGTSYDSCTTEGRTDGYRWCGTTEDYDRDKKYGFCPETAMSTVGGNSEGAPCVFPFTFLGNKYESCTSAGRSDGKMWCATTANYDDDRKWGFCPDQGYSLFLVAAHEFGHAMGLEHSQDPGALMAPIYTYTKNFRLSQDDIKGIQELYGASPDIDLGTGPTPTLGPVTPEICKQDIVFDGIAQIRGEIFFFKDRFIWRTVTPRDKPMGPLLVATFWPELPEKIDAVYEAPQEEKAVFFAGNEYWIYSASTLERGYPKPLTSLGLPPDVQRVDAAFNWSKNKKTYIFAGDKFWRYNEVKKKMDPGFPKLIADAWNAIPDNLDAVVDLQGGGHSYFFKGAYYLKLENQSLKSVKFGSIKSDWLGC
In short: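 Cleavage of the thiopeptide Ac-PLG-[2-mercapto-4-methylpentanoyl]-LG-OC2H5 releases a sulfhydryl that reacts with DTNB, read at 415 nm per the kit protocol. IC50 values (nM) come from inhibition curves of normalized data.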

[3] = target: T3, MMP1 (Homo sapiens, UniProt P03956); assay: MMP-1 colorimetric inhibition assay (Enzo kit BML-AK404); conditions: thiopeptide substrate, absorbance 415 nm; read-out: MMP 1 IC50 class
T3 sequence (P03956 100-269 limits assumed): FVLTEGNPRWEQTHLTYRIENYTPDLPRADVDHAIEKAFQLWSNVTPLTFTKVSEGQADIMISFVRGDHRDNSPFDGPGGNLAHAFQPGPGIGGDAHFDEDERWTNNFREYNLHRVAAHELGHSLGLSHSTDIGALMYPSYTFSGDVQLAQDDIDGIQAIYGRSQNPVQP
In short: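 Colorimetric kit run per manufacturer protocol. MMP-1 cleaves a thiopeptide substrate (Ac-PLG-[2-mercapto-4-methylpentanoyl]-LG-OC2H5); released thiol reacts with DTNB, monitored at 415 nm. IC50 (nM) from inhibition curves of normalized values.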

[4] = target: ADAM17 (TACE) (Homo sapiens, UniProt P78536); assay: TACE fluorometric inhibition assay (Enzo kit BML-AK310); conditions: quenched fluorogenic peptide, ex/em 320/420 nm; read-out: TACE IC50 class
ADAM17 (TACE), sequence (P78536 215-477 limits assumed): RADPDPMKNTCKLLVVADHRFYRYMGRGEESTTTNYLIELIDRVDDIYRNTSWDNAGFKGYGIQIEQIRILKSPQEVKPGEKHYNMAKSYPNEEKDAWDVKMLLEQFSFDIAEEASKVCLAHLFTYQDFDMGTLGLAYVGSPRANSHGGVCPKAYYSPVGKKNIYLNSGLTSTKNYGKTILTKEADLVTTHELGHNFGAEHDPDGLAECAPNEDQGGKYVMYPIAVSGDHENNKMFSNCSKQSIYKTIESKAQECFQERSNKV
In short: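 Kit-based TACE assay run per manufacturer's protocol, using quenched fluorogenic peptide Mca-PLAQAV-Dpa-RSSSR-NH2 whose cleavage raises Mca fluorescence. Signal read at ex/em 320/420 nm; IC50 (nM) derived from inhibition curves of normalized values.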

[5] = target: T4, ADAM10 (Homo sapiens, UniProt O14672); assay: SensoLyte 520 ADAM10 fluorometric activity assay (AnaSpec AS-72226)
T4 construct: purchased AnaSpec, Inc. AS-72226
T4 sequence (O14672 214-748): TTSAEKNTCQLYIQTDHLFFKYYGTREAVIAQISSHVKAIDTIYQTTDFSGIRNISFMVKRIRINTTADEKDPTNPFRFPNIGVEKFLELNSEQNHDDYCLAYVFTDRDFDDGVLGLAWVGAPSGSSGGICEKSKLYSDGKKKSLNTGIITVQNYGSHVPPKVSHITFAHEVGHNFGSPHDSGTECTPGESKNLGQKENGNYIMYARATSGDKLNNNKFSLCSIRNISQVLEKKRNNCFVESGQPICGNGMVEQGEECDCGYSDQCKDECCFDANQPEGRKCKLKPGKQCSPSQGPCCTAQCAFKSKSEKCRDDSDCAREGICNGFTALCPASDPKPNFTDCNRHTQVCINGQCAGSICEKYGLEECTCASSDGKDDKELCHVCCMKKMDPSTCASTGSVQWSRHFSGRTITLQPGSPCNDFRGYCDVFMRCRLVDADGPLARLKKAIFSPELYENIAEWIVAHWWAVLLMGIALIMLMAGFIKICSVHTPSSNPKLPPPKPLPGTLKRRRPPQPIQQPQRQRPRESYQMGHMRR
In short: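 ADAM10 activity was read by cleavage of a FRET peptide substrate (5-FAM/QXL 520), run per the kit protocol, with fluorescence at 495/520 nm. IC50 values (nM) came from inhibition curves of normalized data.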

[6] = target: MMP9 (Homo sapiens, UniProt P14780); assay: MMP-9 colorimetric inhibition assay (Enzo kit BML-AK410); conditions: thiopeptide substrate, absorbance 415 nm; read-out: MMP 9 IC50 class
MMP9, sequence (P14780 94-707): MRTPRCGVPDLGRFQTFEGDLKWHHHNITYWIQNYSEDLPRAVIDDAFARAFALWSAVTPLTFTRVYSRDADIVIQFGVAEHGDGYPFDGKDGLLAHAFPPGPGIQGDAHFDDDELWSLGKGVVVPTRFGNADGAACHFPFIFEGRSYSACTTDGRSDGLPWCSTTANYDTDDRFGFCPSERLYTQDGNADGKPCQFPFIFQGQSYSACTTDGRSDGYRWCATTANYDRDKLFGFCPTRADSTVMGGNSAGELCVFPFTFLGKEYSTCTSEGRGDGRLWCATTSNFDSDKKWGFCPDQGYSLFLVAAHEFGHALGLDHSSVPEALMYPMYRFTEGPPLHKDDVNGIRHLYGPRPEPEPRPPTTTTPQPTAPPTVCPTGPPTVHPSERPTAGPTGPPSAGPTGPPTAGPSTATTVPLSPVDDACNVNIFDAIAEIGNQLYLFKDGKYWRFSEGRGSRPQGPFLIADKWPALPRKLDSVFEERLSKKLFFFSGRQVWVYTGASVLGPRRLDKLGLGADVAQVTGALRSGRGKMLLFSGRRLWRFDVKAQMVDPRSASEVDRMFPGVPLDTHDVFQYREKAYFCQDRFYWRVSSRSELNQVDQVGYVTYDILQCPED
In short: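 Colorimetric thioester-substrate assay: hydrolysis of Ac-PLG-[2-mercapto-4-methylpentanoyl]-LG-OC2H5 frees a thiol that reacts with DTNB, read at 415 nm. Run per kit protocol. IC50 (nM) taken from inhibition curves of normalized values.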

[7] = FRET peptide substrate, ex/em 495/520 nm, read-out: ADAM 10 IC50 class

SMILES	IC50 [1] [nM]	IC50 [2] [nM]	IC50 [3] [nM]	IC50 [4] [nM]	IC50 [5, 7] [nM]	IC50 [6] [nM]	IC50 [5] [nM]
COCCOC(=O)N1[C@@H]2CC[C@H]1[C@H](C(=O)NO)N(S(=O)(=O)c1ccc(Oc3ccc(OCC(F)(F)F)cc3)nc1)C2 [Example 25, 2-methoxyethyl (1S,2R,5R)-2-(hydroxycarbamoyl)-3-((6-(4-(2,2,2-trifluoroethoxy)-phenoxy)pyridin-3-yl)sulfonyl)-3,8-diazabicyclo[3.2.1]-octane-8-carboxylate]	< 50	< 50	1000 to 10000	> 10000	> 10000	< 50	–
COCCOC(=O)N1[C@@H]2CC[C@H]1[C@H](C(=O)NO)N(S(=O)(=O)c1ccc(OC3CCCCC3)nc1)C2 [Example 10, 2-methoxyethyl (1S,2R,5R)-3-((6-(cyclohexyloxy)pyridin-3-yl)sulfonyl)-2-(hydroxycarbamoyl)-3,8-diazabicyclo[3.2.1]octane-8-carboxylate]	< 50	< 50	50 to 1000	1000 to 10000	> 10000	< 50	–
COCCOC(=O)N1[C@@H]2CC[C@H]1[C@H](C(=O)NO)N(S(=O)(=O)N1CCC(Oc3ccc(Cl)cc3)CC1)C2 [Example 44, (1S,2R,5R)-2-methoxyethyl 3-((4-(4-chlorophenoxy)piperidin-1-yl)sulfonyl)-2-(hydroxycarbamoyl)-3,8-diazabicyclo[3.2.1]octane-8-carboxylate]	< 50	< 50	50 to 1000	< 50	–	< 50	50 to 1000
COCCOC(=O)N1[C@@H]2CC[C@H]1[C@H](C(=O)NO)N(S(=O)(=O)c1ccc(Oc3ccc(OC)nc3)nc1)C2 [Example 28, 2-methoxyethyl (1S,2R,5R)-2-(hydroxycarbamoyl)-3-((6-((6-methoxy-pyridin-3-yl)oxy)-pyridin-3-yl)-sulfonyl)-3,8-diaza-bicyclo[3.2.1]octane-8-carboxylate]	< 50	< 50	50 to 1000	1000 to 10000	> 10000	< 50	–
COCCOC(=O)N1[C@@H]2CC[C@H]1[C@H](C(=O)NO)N(S(=O)(=O)c1ccc(Oc3ccc(OC)c(F)c3)nc1)C2 [Example 34, 2-methoxyethyl (1S,2R,5R)-3-((6-(3-fluoro-4-methoxy-phenoxy)pyridin-3-yl)sulfonyl)-2-(hydroxycarbamoyl)-3,8-diaza-bicyclo[3.2.1]octane-8-carboxylate]	< 50	< 50	1000 to 10000	1000 to 10000	1000 to 10000	< 50	–
CC(C)OC(=O)N1[C@@H]2CC[C@H]1[C@H](C(=O)NO)N(S(=O)(=O)c1ccc(Oc3ccc(F)cc3)nc1)C2 [Example 67, isopropyl (1S,2R,5R)-3-((6-(4-fluorophenoxy)-pyridin-3-yl)-sulfonyl)-2-(hydroxycarbamoyl)-3,8-diazabicyclo-[3.2.1]octane-8-carboxylate]	< 50	< 50	50 to 1000	1000 to 10000	> 10000	< 50	–
COCCOC(=O)N1[C@@H]2CC[C@H]1[C@H](C(=O)NO)N(S(=O)(=O)c1ccc(Oc3cnn(C)c3)nc1)C2 [Example 36, 2-methoxyethyl (1S,2R,5R)-2-(hydroxycarbamoyl)-3-((6-((1-methyl-1H-pyrazol-4-yl)oxy)-pyridin-3-yl)-sulfonyl)-3,8-diazabicyclo[3.2.1]-octane-8-carboxylate]	< 50	< 50	< 50	50 to 1000	1000 to 10000	< 50	–
O=C(NO)[C@H]1[C@@H]2CC[C@H](CN1S(=O)(=O)c1ccc(Oc3ccc(OC(F)(F)F)cc3)nc1)N2C(=O)N1CCOCC1 [Example 70, (1S,2R,5R)-N-hydroxy-8-(morpholine-4-carbonyl)-3-((6-(4-(trifluoromethoxy)-phenoxy)pyridin-3-yl)sulfonyl)-3,8-diazabicyclo[3.2.1]-octane-2-carboxamide]	< 50	< 50	> 10000	1000 to 10000	> 10000	< 50	–
